Measured values from PMC7669869, “AdipoR1/AdipoR2 dual agonist recovers nonalcoholic steatohepatitis and related fibrosis via endoplasmic reticulum-mitochondria axis” (Nature Communications, 2020).
Non-standard residues stand in square brackets, D forms with d. Residues, ends and D or L forms follow the SMILES beside them. Nva = CCC[C@H](N)C(=O)O

How the values were obtained:
[1] = system: liver protein expression of HFD induced NASH mice; test: HFD mice: liver western blot; format: in vivo, mouse; details: JT003 500 μg kg−1, in words
Method: (§1) The NASH model was conducted with feeding a HFD for 16 weeks combine with a MCD diet (Methionine/Choline Deficient Diet, Medicience, China) in the last 4 weeks. Mice administered a MCS diet (Methionine/Choline Sufficient Diet, Medicience, China) serves as control group. NAFLD or NASH mice treated with JT003 for 4 weeks were used to evaluate the pharmacological effects (n = 6; 500 μg kg^−1; daily intraperitoneal injection). Food and water were provided ad libitum. The body weight of mice was examined every 3 days. The diet was renewed every 7 days. JT003 was diluted in PBS.
Total protein was isolated from cells or liver samples using RIPA lysis buffer (50.0 mM Tris-HCl (pH = 8.0), 150.0 mM NaCl, 0.02% NaN3, 0.1% SDS, 1% NP-40, 0.5% deoxysodium cholate, 1 mM EDTA, […]). The protein concentration was quantified with BCA kit (Pierce, ThermoFisher Scientific, USA). Thirty micrograms protein were separated by 10 or 12% sodium dodecyl sulfate-polyacrylamide gel electrophoresis depending on the band of target protein, then transferred onto equilibrated polyvinylidene difluoride membrane (PVDF, Immobilon®-PSQ transfer membranes, Merck Millipore, Germany). Membranes were incubated with primary antibodies overnight at 4 °C. Specific antibodies were listed in Supplementary Table 3. After incubation with the secondary antibody, proteins were detected by enhanced chemiluminescence (Glarity^TM Western ECL Substrate, Bio-Rad, USA) and the signals were recorded and quantified with Tanon-Image Software (Shanghai, China). Reference antibody GAPDH were used for data normalization.

[2] = system: liver gene expression of HFD induced NASH mice; test: HFD mice: liver mRNA, quantitative RT-PCR; format: in vivo, mouse; details: for CD14 liver mRNA, relative expression, Supplementary Figure 11b / F4/80 liver mRNA, relative expression, Supplementary Figure 11b / IL-1b liver mRNA, relative expression, Supplementary Figure 11b / IL-6 liver mRNA, relative expression, Supplementary Figure 11b / LY6G liver mRNA, relative expression, Supplementary Figure 11b / iNOS liver mRNA, relative expression, Supplementary Figure 11b: HFD + JT003 mice
Method: as §1
Liver total RNA was extracted by using Trizol reagent following the manufacture’s instruction (TransGen Biotech, China). The concentration of RNA was measured by Nanodrop 2000 (ThermoFisher Scientific, USA). cDNA was transcribed from 10ug total RNA with First Strand cDNA synthesis Super Mix (TransGen Biotech, China). The cDNA was diluted 1/50 and 1.0 uL were used as a template for qPCR. qPCR was performed with SYBR Green qPCR Super Mix (TransGen Biotech, China) in the Light Cycler 480 Real-Time PCR System (Roche, Swiss). Reference gene β-actin was used for data normalization. mRNA expression was analyzed with specific primers listed in Supplementary Table 2.

[3] = HFD mice, liver, JT003 500 μg kg−1, in words

With `CCC[C@H](NC(=O)[C@@H]1CCCN1)C(=O)N[C@@H](CC(C)C)C(=O)N[C@@H](Cc1ccc(O)cc1)C(=O)N[C@@H](Cc1ccc(O)cc1)C(=O)N[C@@H](Cc1ccccc1)C(=O)N[C@@H](C)C(N)=O` [JT003] (H-P[Nva]LYYFA-NH2) the “PI3K and Akt phosphorylation in liver tissue” value [1] was “increased”, the “AMPK and PPARα signaling (western blotting)” value ([1]; liver) was “activated apparently” and the “expression of downstream factor PPARγ” value ([1]; liver) was “inhibited”. For the same compound, the “phosphorylation of PERK and its downstream eIF2α and JNK” value ([1]; liver) was “decreased notably”, the “CD14 liver mRNA, relative expression, Supplementary Figure 11b” value (“CD14 liver mRNA, relative expression” for short) ([2]; replicate 1) was 0.836 and the “F4/80 liver mRNA, relative expression, Supplementary Figure 11b” value (shortened to “F4/80 liver mRNA, relative expression”) ([2]; replicate 1) was 1.324. For the same compound, the “IL-1b liver mRNA, relative expression, Supplementary Figure 11b” value (from here on “IL-1b liver mRNA, relative expression”) ([2]; replicate 1) was 0.2358, the “IL-6 liver mRNA, relative expression, Supplementary Figure 11b” value (“IL-6 liver mRNA, relative expression” below) ([2]; replicate 1) was 0.3838 and the “LY6G liver mRNA, relative expression, Supplementary Figure 11b” value (shortened to “LY6G liver mRNA, relative expression”) ([2]; replicate 1) was 1.539. The “iNOS liver mRNA, relative expression, Supplementary Figure 11b” value (shortened to “iNOS liver mRNA, relative expression”) ([2]; replicate 1) was 0.7587, the “CD14 liver mRNA, relative expression” value ([2]; replicate 2) was 0.7038 and the “F4/80 liver mRNA, relative expression” value ([2]; replicate 2) was 1.41. For the same compound, the “IL-1b liver mRNA, relative expression” value ([2]; replicate 2) was 0.3558, the “IL-6 liver mRNA, relative expression” value ([2]; replicate 2) was 0.9338 and the “LY6G liver mRNA, relative expression” value ([2]; replicate 2) was 2.089. The “iNOS liver mRNA, relative expression” value ([2]; replicate 2) was 1.076, the “CD14 liver mRNA, relative expression” value ([2]; replicate 3) was 0.548 and the “F4/80 liver mRNA, relative expression” value ([2]; replicate 3) was 0.6014. The “IL-1b liver mRNA, relative expression” value ([2]; replicate 3) was 0.1532, the “IL-6 liver mRNA, relative expression” value ([2]; replicate 3) was 0.2832 and the “LY6G liver mRNA, relative expression” value ([2]; replicate 3) was 0.8264. For the same compound, the “iNOS liver mRNA, relative expression” value ([2]; replicate 3) was 1.076, the “CD14 liver mRNA, relative expression” value ([2]; replicate 4) was 0.7504 and the “F4/80 liver mRNA, relative expression” value ([2]; replicate 4) was 1.0118. The “IL-1b liver mRNA, relative expression” value ([2]; replicate 4) was 0.1494, the “IL-6 liver mRNA, relative expression” value ([2]; replicate 4) was 0.2961 and the “LY6G liver mRNA, relative expression” value ([2]; replicate 4) was 2.4. For the same compound, the “iNOS liver mRNA, relative expression” value ([2]; replicate 4) was 0.5084, the “CD14 liver mRNA, relative expression” value ([2]; replicate 5) was 0.8521 and the “F4/80 liver mRNA, relative expression” value ([2]; replicate 5) was 0.7678. For the same compound, the “IL-1b liver mRNA, relative expression” value ([2]; replicate 5) was 0.1331, the “IL-6 liver mRNA, relative expression” value ([2]; replicate 5) was 0.3878 and the “iNOS liver mRNA, relative expression” value ([2]; replicate 5) was 1.435. For the same compound, the “F4/80 liver mRNA, relative expression” value ([2]; replicate 6) was 1.044, the “IL-6 liver mRNA, relative expression” value ([2]; replicate 6) was 0.3111 and the “G6Pase expression level in liver” value ([2]; HFD mice, JT003 500 μg kg−1, compared to HFD mice, in words) was “significantly elevated”. For the same compound, the “expression of antioxidant enzymes (SOD and CAT) and mitochondrial biogenesis regulators (PGC1α and PGC1β)” value [2, 3] was “accelerated prominently”, the “expression of genes related to fatty acid synthesis (PPARγ, ACC1, FASN, DGAT1, FAS, SCD1, ASCL3), fatty acid uptake (CD36) and cholesterol synthesis (HMGCR, SREBP-1C)” value [2, 3] was “significantly inhibited” and the “expression of genes responsible for fatty acid β-oxidation (LCAD, MCAD, UCP2, CPT1α)” value [2, 3] was “much higher”. For the same compound, the “overexpression of genes related to inflammation (LY6G, F4/80, IL-6, IL-1β, iNOS, CD14) and ER stress (XBP1, ATF4, CHOP, BID and GRP78)” value [2, 3] was “suppressed significantly” and the “upregulation of genes related to mitochondrial dysfunction (CYP2E1, BAX, NQO1, SRXN1 and GPX1)” value [2, 3] was “suppressed remarkably”.
